Reference: ChEMBL document CHEMBL5665443, “Enzyme Inhibitor Single Concentration assay results for EUbOPEN Chemogenomics Library” (2024)

How the values were obtained:
Conditions in all cases: Hit No
[1] = target: Methyl-CpG-binding domain protein 4 (Homo sapiens) (UniProt O95243);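 also: MBD4 activity read as fluorescence at 594 nm from cleavage and release of a quenched duplex DNA oligonucleotide, with APE1 coupled to incise the strand and raise turnover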
Description: Inhibition of MBD4 by quantifying inhibition of MBD4-mediated cleavage and dissociation of quenched duplex DNA oligonucleotides, measured as fluorescence at 594 nm. To generate a functional strand incision and increase turn-over this assay is coupled to APE1.

[2] = target: Endonuclease 8-like 1 (Homo sapiens) (UniProt Q96FI4);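 also: fluorescence at 594 nm from quenched duplex DNA oligonucleotides released by NEIL1 cleavage and strand separation, reported as reduction of this enzyme activity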
Description: Inhibition of NEIL1 by quantifying inhibition of NEIL1-mediated cleavage and dissociation of quenched duplex DNA oligonucleotides, measured as fluorescence at 594 nm.

[3] = target: T1, Endonuclease 8-like 2 (Homo sapiens) (UniProt Q969S2);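 also: fluorescence at 594 nm reports NEIL2 cutting and release of a quenched double-stranded DNA oligo substrate, reduced signal read as inhibition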
T1 sequence (whole entry): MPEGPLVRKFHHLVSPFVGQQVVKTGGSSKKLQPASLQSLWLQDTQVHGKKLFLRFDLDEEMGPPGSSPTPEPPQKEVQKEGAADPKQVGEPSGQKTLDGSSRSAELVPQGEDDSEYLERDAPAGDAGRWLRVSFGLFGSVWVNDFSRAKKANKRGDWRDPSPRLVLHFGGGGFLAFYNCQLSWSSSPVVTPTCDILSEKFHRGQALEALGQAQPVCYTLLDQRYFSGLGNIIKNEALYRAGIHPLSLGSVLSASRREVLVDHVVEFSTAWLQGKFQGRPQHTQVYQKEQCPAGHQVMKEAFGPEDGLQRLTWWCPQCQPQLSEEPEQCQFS
Description: Inhibition of NEIL2 by quantifying inhibition of NEIL2-mediated cleavage and dissociation of quenched duplex DNA oligonucleotides, measured as fluorescence at 594 nm.

[4] = target: T2, Endonuclease III-like protein 1 (Homo sapiens) (UniProt P78549);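 also: enzyme assay tracking NTHL1 cutting and release of a quenched double-stranded DNA oligo substrate, read as fluorescence at 594 nm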
T2 sequence (whole entry): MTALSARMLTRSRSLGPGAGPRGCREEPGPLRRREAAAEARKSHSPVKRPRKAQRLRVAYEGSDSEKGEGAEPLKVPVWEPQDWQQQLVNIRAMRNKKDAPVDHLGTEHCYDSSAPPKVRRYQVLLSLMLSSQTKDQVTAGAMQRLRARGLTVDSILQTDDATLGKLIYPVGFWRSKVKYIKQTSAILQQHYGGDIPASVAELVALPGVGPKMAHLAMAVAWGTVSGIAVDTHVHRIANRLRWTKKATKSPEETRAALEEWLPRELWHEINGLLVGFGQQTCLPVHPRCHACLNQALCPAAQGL
Description: Inhibition of NTHL1 by quantifying inhibition of NTHL1-mediated cleavage and dissociation of quenched duplex DNA oligonucleotides, measured as fluorescence at 594 nm.

[5] = target: N-glycosylase/DNA lyase (Homo sapiens) (UniProt O15527);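 also: OGG1 cleavage of a quenched duplex DNA oligonucleotide, coupled to APE1 for strand incision, read as fluorescence at 594 nm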
Description: Inhibition of OGG1 by quantifying inhibition of OGG1-mediated cleavage and dissociation of quenched duplex DNA oligonucleotides, measured as fluorescence at 594 nm. To generate a functional strand incision and increase turn-over this assay is coupled to APE1.

[6] = target: T3, Single-strand selective monofunctional uracil DNA glycosylase (Homo sapiens) (UniProt Q53HV7);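 also: enzymatic SMUG1 assay coupled with APE1, reading fluorescence at 594 nm released when a quenched double-stranded DNA oligonucleotide substrate is cleaved and separated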
T3 sequence (whole entry): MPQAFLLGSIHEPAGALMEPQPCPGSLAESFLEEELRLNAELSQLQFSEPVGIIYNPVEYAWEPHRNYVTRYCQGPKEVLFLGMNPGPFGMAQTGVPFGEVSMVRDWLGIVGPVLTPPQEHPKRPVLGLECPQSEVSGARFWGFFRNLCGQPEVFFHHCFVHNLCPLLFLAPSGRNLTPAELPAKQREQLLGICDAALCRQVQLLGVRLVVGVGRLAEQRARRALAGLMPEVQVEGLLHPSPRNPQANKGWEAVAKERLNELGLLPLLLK
Description: Inhibition of SMUG1 by quantifying inhibition of SMUG1-mediated cleavage and dissociation of quenched duplex DNA oligonucleotides, measured as fluorescence at 594 nm. To generate a functional strand incision and increase turn-over this assay is coupled to APE1.

[7] = target: G/T mismatch-specific thymine DNA glycosylase (Homo sapiens) (UniProt Q13569);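 also: human TDG cleavage of quenched duplex DNA oligonucleotides coupled to APE1, strand release read as fluorescence at 594 nm, inhibition of TDG activity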
Description: Inhibition of TDG by quantifying inhibition of TDG-mediated cleavage and dissociation of quenched duplex DNA oligonucleotides, measured as fluorescence at 594 nm. To generate a functional strand incision and increase turn-over this assay is coupled to APE1.

[8] = target: Uracil-DNA glycosylase (Homo sapiens) (UniProt P13051);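 also: UNG excision on a quenched double-stranded DNA oligo probe, with APE1 added for strand incision and turnover, read as fluorescence at 594 nm as strands separate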
Sequence of Uracil-DNA glycosylase (Homo sapiens) (P13051 whole entry): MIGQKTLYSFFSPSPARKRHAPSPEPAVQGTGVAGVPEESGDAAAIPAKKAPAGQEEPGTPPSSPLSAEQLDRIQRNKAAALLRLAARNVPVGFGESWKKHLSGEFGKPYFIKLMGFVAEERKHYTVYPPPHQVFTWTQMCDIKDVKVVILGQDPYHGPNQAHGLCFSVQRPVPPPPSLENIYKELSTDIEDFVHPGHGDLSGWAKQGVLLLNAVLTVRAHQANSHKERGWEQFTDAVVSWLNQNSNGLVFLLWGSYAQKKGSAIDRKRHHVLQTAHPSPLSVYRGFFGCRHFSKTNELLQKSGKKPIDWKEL
Description: Inhibition of UNG by quantifying inhibition of UNG-mediated cleavage and dissociation of quenched duplex DNA oligonucleotides, measured as fluorescence at 594 nm. To generate a functional strand incision and increase turn-over this assay is coupled to APE1.

Sequence of Methyl-CpG-binding domain protein 4 (Homo sapiens) (O95243 whole entry, the tested form may be a part): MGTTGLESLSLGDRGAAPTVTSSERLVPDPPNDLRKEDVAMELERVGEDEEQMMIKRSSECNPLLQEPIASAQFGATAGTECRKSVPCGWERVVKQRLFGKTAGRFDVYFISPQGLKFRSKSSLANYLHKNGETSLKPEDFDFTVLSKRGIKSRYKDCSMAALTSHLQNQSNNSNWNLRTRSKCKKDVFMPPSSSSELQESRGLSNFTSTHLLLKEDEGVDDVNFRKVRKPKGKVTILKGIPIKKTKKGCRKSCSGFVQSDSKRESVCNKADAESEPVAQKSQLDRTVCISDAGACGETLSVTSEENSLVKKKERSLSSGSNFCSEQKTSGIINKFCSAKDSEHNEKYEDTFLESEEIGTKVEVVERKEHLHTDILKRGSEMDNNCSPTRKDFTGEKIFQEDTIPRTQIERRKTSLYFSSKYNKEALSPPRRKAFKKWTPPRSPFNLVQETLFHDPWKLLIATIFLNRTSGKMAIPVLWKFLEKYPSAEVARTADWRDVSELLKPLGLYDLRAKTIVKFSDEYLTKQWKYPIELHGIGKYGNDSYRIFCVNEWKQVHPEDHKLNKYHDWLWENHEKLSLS
Sequence of Endonuclease 8-like 1 (Homo sapiens) (Q96FI4 whole entry): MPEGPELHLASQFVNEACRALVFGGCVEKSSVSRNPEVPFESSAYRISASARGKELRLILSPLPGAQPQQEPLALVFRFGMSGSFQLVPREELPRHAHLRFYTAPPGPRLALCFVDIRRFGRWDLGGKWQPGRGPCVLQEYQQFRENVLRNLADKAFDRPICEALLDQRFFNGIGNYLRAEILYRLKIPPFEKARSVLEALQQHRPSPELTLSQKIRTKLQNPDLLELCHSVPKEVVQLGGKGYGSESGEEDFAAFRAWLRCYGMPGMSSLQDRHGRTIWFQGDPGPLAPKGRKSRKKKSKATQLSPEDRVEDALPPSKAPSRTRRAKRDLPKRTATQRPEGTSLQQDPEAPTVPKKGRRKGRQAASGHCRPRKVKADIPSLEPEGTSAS
Sequence of N-glycosylase/DNA lyase (Homo sapiens) (O15527 whole entry): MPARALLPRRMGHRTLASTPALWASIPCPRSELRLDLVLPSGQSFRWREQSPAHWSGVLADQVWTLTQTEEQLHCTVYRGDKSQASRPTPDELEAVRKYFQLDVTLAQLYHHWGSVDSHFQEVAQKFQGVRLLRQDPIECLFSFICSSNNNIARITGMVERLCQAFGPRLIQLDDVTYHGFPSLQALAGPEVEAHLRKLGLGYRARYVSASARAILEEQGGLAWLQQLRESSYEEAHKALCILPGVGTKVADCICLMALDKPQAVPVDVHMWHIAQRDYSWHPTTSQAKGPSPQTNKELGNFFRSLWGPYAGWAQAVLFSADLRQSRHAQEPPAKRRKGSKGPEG
Sequence of G/T mismatch-specific thymine DNA glycosylase (Homo sapiens) (Q13569 whole entry): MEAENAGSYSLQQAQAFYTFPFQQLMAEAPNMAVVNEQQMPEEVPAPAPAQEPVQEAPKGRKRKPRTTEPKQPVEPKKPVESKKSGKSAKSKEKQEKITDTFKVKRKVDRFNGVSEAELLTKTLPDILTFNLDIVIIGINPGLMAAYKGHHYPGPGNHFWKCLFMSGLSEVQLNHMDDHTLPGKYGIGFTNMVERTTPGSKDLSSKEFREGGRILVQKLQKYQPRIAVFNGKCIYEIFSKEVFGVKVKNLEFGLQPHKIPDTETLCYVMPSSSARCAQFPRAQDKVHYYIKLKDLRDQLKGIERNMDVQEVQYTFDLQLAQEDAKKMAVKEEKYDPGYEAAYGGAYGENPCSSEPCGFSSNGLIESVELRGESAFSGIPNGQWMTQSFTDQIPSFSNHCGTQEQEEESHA

Row | SMILES | inhibition ([1]; Compound Concentration 10.0 uM) | inhibition ([2]; Compound Concentration 10.0 uM) | inhibition ([3]; Compound Concentration 10.0 uM) | inhibition ([4]; Compound Concentration 10.0 uM) | inhibition ([5]; Compound Concentration 10.0 uM) | inhibition ([6]; Compound Concentration 10.0 uM) | inhibition ([7]; Compound Concentration 10.0 uM) | inhibition ([8]; Compound Concentration 10.0 uM) | inhibition ([1]; Compound Concentration 1.0 uM) | inhibition ([2]; Compound Concentration 1.0 uM) | inhibition ([3]; Compound Concentration 1.0 uM) | inhibition ([4]; Compound Concentration 1.0 uM) | inhibition ([5]; Compound Concentration 1.0 uM) | inhibition ([6]; Compound Concentration 1.0 uM) | inhibition ([7]; Compound Concentration 1.0 uM) | inhibition ([8]; Compound Concentration 1.0 uM)
1 | COc1cc(-c2cncc(-c3ccc(N4CCN(C(C)C)CC4)cc3)c2C)cc(F)c1C(=O)N1CCCC1 | 0.55% | 3.31% | -8.65% | 0.0872% | 12.1% | 28.7% | 47.2% | 7.27% | – | – | – | – | – | – | – | –
2 | COc1cc(O)c(C(CC(=O)N2C[C@H](C)C[C@H](C)C2)c2ccc3c(c2)OCO3)c(OC)c1 (some centres undefined) | 55.4% | -4.23% | -7.38% | -3.92% | 10.8% | 8.36% | 58.3% | -0.808% | – | – | – | – | – | – | – | –
3 | O=S(=O)(NC1CCC(c2cc(F)ccc2F)(S(=O)(=O)c2ccc(Cl)cc2)CC1)C(F)(F)F (centres undefined) | – | – | – | – | – | – | – | – | 61.8% | -7.56% | -8.91% | -3.92% | 19.6% | 19.5% | 36.8% | 0.604%
4 | Cc1cccc(CN2CCN(C(c3ccccc3)c3ccc(Cl)cc3)CC2)c1 (centres undefined) | 55.1% | 5.62% | 8.7% | 4.63% | 3.33% | 10.2% | 31.2% | 5.91% | – | – | – | – | – | – | – | –
5 | CCn1c(CNC(=O)c2ncc(C)nc2N)[n+](CC)c2ccc(C(=O)N(C)CCN(C)C)cc21 | 47.5% | -4.53% | 1.3% | -6.55% | 14.2% | 1.28% | 100% | -0.563% | – | – | – | – | – | – | – | –
6 | CC[C@@H]1CN2C(=O)N(C)c3nc(-c4ccccc4)[nH]c3C2=N1 | -6.99% | 0.982% | -3.73% | 7.79% | -8.56% | -6.04% | -6.27% | -9.41% | – | – | – | – | – | – | – | –
7 | CC(C)(O)c1cn(-c2ccc(-c3cccc(S(C)(=O)=O)c3)cc2)c(C(C)(C)c2ccccc2Cl)n1 | 15.3% | -5.44% | -6.36% | -2.6% | 5% | 17.1% | 57.4% | -9.54% | – | – | – | – | – | – | – | –
8 | Cc1cn([C@H](C)CC#N)c(=O)c2cc(Cn3nc(C(F)F)cc3Cl)nn12 | 55.5% | -8.77% | -2.27% | -5.89% | -5.53% | 9.99% | 31.2% | 1.83% | – | – | – | – | – | – | – | –
9 | CC[C@@H]1[C@H](F)C(=O)N[C@@H]1COc1nccc2cc(C(N)=O)c(OC)cc12 | – | – | – | – | – | – | – | – | 1.45% | -3.17% | -7.57% | 2.88% | -7.95% | 2.52% | 35.2% | -6.54%
10 | O=C(O)CCC/C=C\CC1C(O)CC(O)C1/C=C/C(O)COc1cccc(Cl)c1 (centres undefined) | -2.64% | -0.0556% | -0.234% | 21% | -6.16% | -7.54% | 2.98% | -7.78% | – | – | – | – | – | – | – | –
11 | C[C@@H](c1cccc(CN)c1)n1cc(Cl)cc(C(N)=O)c1=N | 72.4% | -9.23% | 0.0213% | -5.89% | -2.92% | 3.56% | 49.3% | -0.0293% | – | – | – | – | – | – | – | –
12 | Cc1cc(OCC(=O)O)cc(C)c1Cc1ccc(O)c(C(C)C)c1 | 57.9% | -0.29% | 4.61% | 7.26% | 20.6% | 9.54% | 63% | 2.02% | – | – | – | – | – | – | – | –
13 | CN1CCC[C@H]1c1cccnc1 | -6.38% | 4.6% | -0.35% | 8% | -8.49% | -4.08% | -9.56% | -2.67% | – | – | – | – | – | – | – | –
14 | C[C@H](NC(=O)c1cn(C2(C#N)CC2)cn1)C(=O)Nc1nc(-c2cccc(-c3ccn(C)n3)c2)cs1 | – | – | – | – | – | – | – | – | 59.5% | -5.74% | -9.67% | -7.2% | -5.28% | 3.85% | 51.4% | 1.27%
15 | O=c1nc(-c2ccccn2)sc2ccccc12 | 53.8% | – | 17.4% | 2% | 10.7% | 5.03% | 99.2% | -3.04% | – | – | – | – | – | – | – | –
16 | Cc1cc(C)c(S(=O)(=O)N(Cc2ccc(-c3cccc(S(C)(=O)=O)c3)cc2)Cc2ccc(C(F)(F)F)o2)c(C)c1 | 60.3% | – | -8.4% | 5.94% | -3.9% | 7.91% | 97.7% | -2.84% | – | – | – | – | – | – | – | –
17 | O=C(NCCCn1ccnc1)c1cc2nc(-c3ccccc3)cc(-c3ccccc3)n2n1 | 28.3% | – | -9.67% | -4.57% | -1.93% | 12% | 44.7% | 4.11% | – | – | – | – | – | – | – | –
18 | COc1cnccc1Nc1nc(-c2nn(Cc3c(F)cc(OCCO)cc3F)c3ccccc23)ncc1OC | 52.5% | – | – | -7.86% | 14.4% | 6.21% | 11.1% | -1.2% | 47.4% | – | -7.84% | 4.97% | – | 7.99% | 29.7% | 1.12%
19 | C[C@H](c1ccc(F)cc1)N(Cc1cccc(C(=O)O)c1)C(=O)c1cnc2ccccc2c1 | 54.2% | – | 0.531% | 5.94% | -1.34% | 15.5% | 99.9% | 1.51% | – | – | – | – | – | – | – | –
20 | C[C@H](c1ccnc(Nc2nc3ccc(-c4cc(N(C)C)ncn4)cc3[nH]2)c1)N1CCN(C(=O)CC(F)(F)F)CC1 | 37.6% | – | -5.59% | -3.92% | -2.48% | 11.6% | 87.4% | 1.7% | – | – | – | – | – | – | – | –
